# Results as given in PubChem BioAssay (NCI).
#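 Exposure lasted 48 hours, with cells grown in 96-well plates and compounds tested at five concentrations. Here, GI50 denotes the concentration required for 50% inhibition of growth. Definition used: TGI = concentration required for complete inhibition of growth.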
# Experiments:
# Assay in all cases: NCI-60 cell line screen, 48 h
# HOP-92 NSCLC = system: HOP-92 NSCLC
# HL-60(TB) leukemia = system: HL-60(TB) leukemia
# SK-MEL-5 melanoma = system: SK-MEL-5 melanoma
# PC-3 prostate = system: PC-3 prostate
# MDA-MB-435 = system: MDA-MB-435
# SF-539 CNS = system: SF-539 CNS
# SN12C renal = system: SN12C renal
# A549 NSCLC = system: A549 NSCLC
# SK-MEL-28 melanoma = system: SK-MEL-28 melanoma
# SNB-75 CNS = system: SNB-75 CNS
# HCT-15 colon = system: HCT-15 colon
# SK-OV-3 ovarian = system: SK-OV-3 ovarian
# IGROV1 ovarian = system: IGROV1 ovarian
# HCC-2998 colon = system: HCC-2998 colon
# BT-549 breast = system: BT-549 breast
# RXF 393 renal = system: RXF 393 renal
# UACC-62 melanoma = system: UACC-62 melanoma
# OVCAR-5 ovarian = system: OVCAR-5 ovarian
# U251 CNS = system: U251 CNS
# 786-0 renal = system: 786-0 renal
# OVCAR-8 ovarian = system: OVCAR-8 ovarian
# OVCAR-4 ovarian = system: OVCAR-4 ovarian
# OVCAR-3 ovarian = system: OVCAR-3 ovarian
# HOP-62 NSCLC = system: HOP-62 NSCLC
# DU-145 prostate = system: DU-145 prostate
# A498 renal = system: A498 renal
# UO-31 renal = system: UO-31 renal
# MDA-MB-231 breast = system: MDA-MB-231 breast
# HCT-116 colon = system: HCT-116 colon
compound,measurement,setting,value
COc1ccc2c(c1)O/C(=C\c1ccc([N+](=O)[O-])o1)C2=O,TGI,HOP-92 NSCLC,5620 nM
same,GI50,HL-60(TB) leukemia,1800 nM
same,TGI,HL-60(TB) leukemia,5690 nM
same,GI50,SK-MEL-5 melanoma,1560 nM
same,TGI,SK-MEL-5 melanoma,3080 nM
same,GI50,PC-3 prostate,2140 nM
same,TGI,PC-3 prostate,> 25500 nM
same,GI50,MDA-MB-435,1610 nM
same,TGI,MDA-MB-435,3490 nM
same,GI50,SF-539 CNS,1600 nM
same,TGI,SF-539 CNS,4140 nM
same,GI50,SN12C renal,2450 nM
same,TGI,SN12C renal,> 100000 nM
same,GI50,A549 NSCLC,2430 nM
same,TGI,A549 NSCLC,8040 nM
same,GI50,SK-MEL-28 melanoma,2170 nM
same,TGI,SK-MEL-28 melanoma,5020 nM
same,GI50,SNB-75 CNS,2240 nM
same,TGI,SNB-75 CNS,8260 nM
same,GI50,HCT-15 colon,271 nM
same,TGI,HCT-15 colon,1260 nM
same,GI50,SK-OV-3 ovarian,4750 nM
same,TGI,SK-OV-3 ovarian,59000 nM
same,GI50,IGROV1 ovarian,1350 nM
same,TGI,IGROV1 ovarian,7300 nM
same,GI50,HCC-2998 colon,1810 nM
same,TGI,HCC-2998 colon,3640 nM
same,GI50,BT-549 breast,1560 nM
same,TGI,BT-549 breast,3070 nM
same,GI50,RXF 393 renal,1470 nM
same,TGI,RXF 393 renal,2990 nM
same,GI50,UACC-62 melanoma,1590 nM
same,TGI,UACC-62 melanoma,3540 nM
same,GI50,OVCAR-5 ovarian,2270 nM
same,TGI,OVCAR-5 ovarian,5780 nM
same,GI50,U251 CNS,1980 nM
same,TGI,U251 CNS,6560 nM
same,GI50,786-0 renal,1990 nM
same,TGI,786-0 renal,4830 nM
same,GI50,OVCAR-8 ovarian,1410 nM
same,TGI,OVCAR-8 ovarian,7460 nM
same,GI50,OVCAR-4 ovarian,1870 nM
same,TGI,OVCAR-4 ovarian,6500 nM
same,GI50,OVCAR-3 ovarian,1190 nM
same,TGI,OVCAR-3 ovarian,2530 nM
same,GI50,HOP-62 NSCLC,2050 nM
same,TGI,HOP-62 NSCLC,6560 nM
same,GI50,DU-145 prostate,775 nM
same,TGI,DU-145 prostate,7940 nM
same,GI50,A498 renal,1740 nM
same,TGI,A498 renal,4540 nM
same,GI50,UO-31 renal,1410 nM
same,TGI,UO-31 renal,4300 nM
same,GI50,MDA-MB-231 breast,2030 nM
same,TGI,MDA-MB-231 breast,6630 nM
same,GI50,HCT-116 colon,246 nM
same,TGI,HCT-116 colon,747 nM
